According to patent publication US20080260833A1, “Drug delivery vehicle containing vesicles in a hydrogel base” (priority 2007, published 2008):
Counter-ions that a name gives are not always drawn.

Key:
Format in all cases: physicochemical
[1] = Passive diffusion from vesicles and hydrogel matrix (Example 1); conditions: PMOXA-b-PDMS-b-PMOXA vesicles in PVA-acrylamide hydrogel; water
Experimental: Vesicles are made out of the block copolymer poly(2-methyl-2-oxazoline)-b-polydimethylsiloxane-b-poly(2-methyl-2-oxazoline). Molecular weights of the segments are poly(2-methyl-2-oxazoline): 1300, and PDMS segment: 4400. The copolymer is made as described in U.S. Pat. No. 5,807,944 to Hirt et al.
A total of 50 mg of polymer was dissolved in 250 μl of ethanol (99%). The ethanolic solution was slowly added to 5 ml of bi-distilled water containing 0.2 M carboxy-fluorescein. A minimum of 4 h of stirring was allowed. Subsequently, the vesicles were extruded through 0.45 μm and 0.22 μm filters (Millex Durapore-PVDF, Millipore) 6 times. This procedure ensures formation of unilamellar vesicles with diameters dictated by the pore size of the extrusion filters and with a more monodisperse size distribution. Chromatographic separation was achieved on a Sepharose 4B column (1×30 cm) eluted with bi-distilled water. The slightly hazy fraction contains the vesicles.
The hydrogel matrix is based on a PVA-acrylamide macromer and a UV-initiator as taught by U.S. Pat. No. 7,070,809 to Goupil et al., Example 5a. […]
3 g of the vehicle are immersed in 5 ml of water. The water is exchanged every hour for the first 8 hours and every 24 hours thereafter and the fluorescence of the supernatant is measured in order to calculate the amount of carboxy-fluorescein released from the vehicle.

[2] = Release of free lidocaine from the PVA-acrylamide hydrogel (Example 2); conditions: in 8 hours; 3 g UV-crosslinked hydrogel in 5 ml buffer; UV at 263 nm
Experimental: (§1) The hydrogel matrix is the same as Example 1.
(§2) The vesicles are loaded with lidocaine HCl, via a phase transfer method from chloroform to water, and cleaned over a Sepharose column. The resulting vesicles formulation is mixed with the PVA-acrylamide macromer and Irgacure 2959.3 g of the hydrogel is crosslinked with UV and immersed in 5 ml buffer solution at pH 4. The 5 ml buffer is exchanged after 8-16 h with 5 ml buffer solution at 0.5 pH units higher and left for another 8-16 h. This is repeated until pH 6.5 is reached. About 80% of free lidocaine is released from the hydrogel in 8 hours. The lidocaine HCl release is measured with UV at 263 nm and compared to a standard curve.

[3] = Release from pH responsive vesicles in hydrogel (Example 2); conditions: poly(2-vinylpyridine-b-ethylene oxide) vesicles in hydrogel; buffer pH 4 to 6.5 in 0.5 pH steps
Text: The vesicles are made from the block copolymer poly(2-vinylpyridine-b-ethylene oxide) (NP2VP:29,NPEO: 15) This polymer can be made as described in Foerster et al., Langmuir, 2006, 22, 5843-5847.
as §1, §2

[4] = Release from temperature sensitive vesicles in hydrogel (Example 4); conditions: cooled from 40 C to room temperature, 10 ml water, 12 hours
Experimental: The vesicles are loaded with lidocaine HCl in a buffered solution at pH 6.5 above 40 C and cleaned over a Sepharose column. The resulting vesicles are mixed into 3 g of hydrogel at a solid content of 7% at 40 C. The hydrogel is cooled to room temperature and immersed in 10 ml of water. […] The release is measured with UV at 263 nm over 12 hours.

[5] = Release from vesicles crosslinked into the hydrogel (Example 5); conditions: buffer pH 6.5, 50 C for 24 hours or taken out of solution over night
Text: Vesicles are made from the block copolymer HO-poly(2-methyl-2-oxazoline)-b-polydimethylsiloxane-b-poly(2-methyl-2-oxazoline)-OH modified with isocyanto-ethylmetacrylate at the OH endgroups as taught in U.S. Pat. No. 5,807,944 to Hirt et al.
The hydrogel matrix is made as described in Example 1.
The vesicles are loaded with a hydrophilic lidocaine HCl and cleaned over a Sepharose column as taught above. The resulting vesicles formulation is mixed with the PVA-acrylamide macromer and Irgacure 2959.3 times 3 g of the hydrogel is crosslinked with UV and immersed in 10 ml buffer solution at pH 6.5 each. One sample is exposed to 50 C for 24 hours and left for another 24 hours. One sample is taken out of solution over night and put back into the buffer for 24 hours. Solutions are analyzed with UV for the lidocaine release and compared to the untreated solution.

Compound	passive release of active agent out of the vesicles and hydrogel matrix [1]	free lidocaine released from the hydrogel [2]	lidocaine HCl release out of the vesicles in response to a change in pH [3]	release of vesicle content at room temperature [4]	lidocaine release after shape change of the hydrogel [5]
Carboxy-fluorescein	slowly diffuse out of the vesicles and then be released from the hydrogel				
CCN(CC)CC(=O)Nc1c(C)cccc1C [lidocaine HCl]		About 80%	released slowly with increasing pH, with an increased rate after pH 5	release their content slowly	ruptured the vesicles and their content is released
